This is an account of results in patent US20090202660A1, “Agents and Methods for Osteogenic Oxysterols Inhibition of Oxidative Stress on Osteogenic Cellular Differentiation” (The Regents of the University of California, priority 2005, published 2009).

Data set [1] relates to M2 cells. Briefly: Troglitazone-induced adipogenesis, oil Red O staining and adipocyte count. As to conditions: troglitazone 10 μM, oxysterols 10 μM, 8-10 days. The class given is cell-based, mouse. The method, then: (§1) Von Kossa and oil red O staining—Matrix mineralization in cell monolayers was detected by silver nitrate staining as previously described. Oil red O staining for detection of adipocytes was performed as previously described.
Test 1: M2 cells at 90% confluence were treated with vehicle (C), PPAR-γ activator, troglitazone 10 uM (Tro), alone or in combination with 10 μM oxysterols 20S-, 22R-, or 25S-hydroxycholesterol. After 8 days, adipocytes were identified by oil Red 0 staining and quantified by counting under a phase contrast microscope. FIG. 6A is a bar graph depicting the effect of oxysterols on reducing adipogenesis of MSC.
Test 2: (A) M2 cells at confluence were treated in RPMI containing 10% FBS with control vehicle or 10 μM troglitazone (Tro) in the absence or presence of 10 μM 20S or 22S oxysterols. After 10 days, adipocytes were visualized by oil Red O staining and quantified by light microscopy, shown in (B). […] (C) M2 cells were treated at confluence with 10 μM Tro, alone or in combination with 10 μM 20S oxysterol. After 10 days, total RNA was isolated and analyzed for lipoprotein lipase (LPL), adipocyte P2 gene (aP2) or 18S rRNA expression by Northern blotting as described (Ref). Data from densitometric analysis of the Northern blot is shown in (D) as the average of duplicate samples, normalized to 18S rRNA.

The test system of data set [2] is osteocalcin mRNA. The data set is described as follows: Northern blotting for osteocalcin mRNA in M2 cells. The class given is cell-based, mouse. The settings on record: for osteocalcin gene expression: M2 cells in osteogenic medium, up to 14 days; for osteocalcin expression, synergy with osteogenic oxysterols: BMP 50 ng/ml with 22S+20S (SS, 2.5 μM), eight days. The procedure:
RNA isolation and Northern blot analysis—Following treatment of cells under appropriate experimental conditions, total RNA was isolated using the RNA isolation kit from Stratagene (La Jolla, Calif., U.S.A.). Total RNA ([…]) was run on a 1% agarose/formaldehyde gel and transferred to Duralon-UV membranes (Strategene, Calif., U.S.A.) and cross-linked with UV light. The membranes were hybridized overnight at 60 degree C. with ^32P-labeled mouse osteocalcin cDNA probe, mouse lipoprotein lipase (LPL), mouse adipocyte protein 2 (aP2) PCR-generated probes, human 28S or 18S rRNA probes obtained from Geneka Biotechnology (Montreal, Quebec, Canada) and Maxim Biotech (San Francisco, Calif., U.S.A.), respectively. The PCR products were generated using primer sets synthesized by Invitrogen (Carlsbad, Calif., U.S.A.) with the following specifications: mouse aP2 gene (accession no. M13261); sense (75-95) 5′-[…]-3′, antisense (362-383) 5′-[…]-3′, generating a PCR product of 309 base pairs. Mouse LPL (accession no. XM—134193); sense (1038-1058) 5′-[…]-3′, antisense (1816-1836) 5′-[…]-3′, generating a PCR product of 799 base pairs. […] Following hybridization, the blots were washed twice at room temperature with 2×SSC+0.1% SDS, and then twice at 60 degree C. with 0.5×SSC+0.1% SDS, and exposed to X-ray film. The extent of gene induction was determined by densitometry.
After 4 and 8 days, total RNA from duplicate samples was isolated and analyzed for osteocalcin (Osc) and 28S rRNA expression by Northern blotting as described. FIG. 3E is a radiogram of Northern blotting for osteocalcin mRNA in M2 cells exposed to a control or combination of oxysterols for 4 or 8 days. FIG. 3F is a bar graph depicting the relative demsometric units of osteocalcin mRNA in M2 cells exposed to a control or combination of oxysterols for 4 or 8 days. Data from densitometric analysis of the Northern blot is shown in (F) as the average of duplicate samples, normalized to 28S rRNA.
RNA Isolation and Northern Blot Analysis—Total RNA was isolated using the RNA isolation kit from Stratagene (La Jolla, Calif., USA). Northern blotting and analysis of osteocalcin mRNA and 18S rRNA expression was performed as previously described (23).

Data set [3] relates to M2-10B4 marrow stromal cells. The data set is described as follows: Matrix mineralization (45Ca incorporation assay, von Kossa staining). The class given is cell-based, mouse. The settings on record: for mineralization: M2 cells in osteogenic medium, 10-14 days; for inhibition of oxysterol-induced mineralization: M2 cells pretreated with inhibitor, then 22R+20S oxysterols, 10 days; for mineralization, synergy with oxysterols: marrow stromal cells, BMP with oxysterols. The method, then: as §1
^45Ca incorporation assay—Matrix mineralization in cell monolayers was quantified using the ^45Ca incorporation assay as previously described.
After 14 days, mineralization was identified by a von Kossa staining, which appears black. FIG. 3C is a depiction of von Kossa staining of M2 cells exposed to various conditions. […]

The subject of data set [4] is M2-10B4 marrow stromal cells. The data set is described as follows: Colorimetric alkaline phosphatase (ALP) activity assay on whole cell extracts. As to conditions: for alkaline phosphatase activity (induction): M2 cells in osteogenic medium, oxysterols 0.5-10 μM, 3-4 days; for alkaline phosphatase activity: ligands used at 10 μM, control 18±2, ±SD; for Enzyme Activity (units/mg total cellular protein) ± SD: alkaline phosphatase, oxysterols 5 μM, 4 days, untreated 6 ± 3; for inhibition of oxysterol-induced alkaline phosphatase activity: M2 cells pretreated with inhibitor, then 22R+20S oxysterols, 3 days; for alkaline phosphatase activity, synergy with oxysterols: marrow stromal cells, BMP with oxysterols.
Procedure: Alkaline phosphatase activity assay: Colorimetric alkaline phosphatase (ALP) activity assay on whole cell extracts was performed as previously described.
Test 1: M2 cells at confluence were treated with control vehicle (C), or 10 µM oxysterols, in an osteogenic medium consisting of RPMI 1640 to which 10% fetal bovine serum (FBS), 50 µg/ml ascorbate and 3 mM beta-glycerophosphate (□GP) were added. After 3 days of incubation, alkaline phosphatase (ALP) activity was determined in cell homogenates by a colorimetric assay.
M2 cells at confluence were treated in osteogenic medium with control vehicle (C) or a combination of 22R and 20S oxysterols, at the indicated concentrations. ALP activity was measured after 3 days as described above.
Test 2: M2 cells were grown in RPMI medium containing 10% fetal bovine serum (FBS). At confluence, the cells were treated in RPMI containing 5% FBS plus ascorbate at 50 μg/ml and β-glycerophosphate at 3 mM to induce osteoblastic differentiation. Adipogenic differentiation was induced by treating the cells in growth medium plus 10˜M troglitazone. A vehicle (C) or oxysterol treatment was applied to cells in a variety of doses (in μM): 20S-Hydroxycholesterol, 25-Hydroxycholesterol, 22R-Hydroxycholesterol; 22S-Hydroxycholesterol; 7-ketocholesterol. Cells were always treated at 90% confluence. After 4 days, alkaline phosphatase activity was determined in whole cell lysates and normalized to protein. Alternatively, MSC cultures were prepared and treated with oxysterols as described above. Cells were treated at 90% confluence with the combination of 22R-Hydroxycholesterol and 20S-Hydroxycholesterol, each at 5 μM, for 4 to 96 hours. The oxysterols where removed and fresh media without oxysterols was added for a total duration of 96 hours. Alkaline phosphatase activity was measured in whole cell extracts and normalized to protein.
Cells were treated with the oxysterols (5 μM) for 4 days after which they were collected and analyzed by colorimetric assay for alkaline phosphatase activity. Results from a representative experiment are shown as the average of quadruplicate determination ±SD.

The test system of data set [5] is marrow stromal cells. The data set is described as follows: Markers of osteogenic differentiation in marrow stromal cells (ALP, osteocalcin mRNA, mineral formation). The settings on record: for osteogenic property (markers of osteoblastic differentiation): alone or in combination with originally described oxysterols. The class given is cell-based, mouse. The procedure:
Next, a combination of 22R and 20S oxysterols (RS, 2.5 μM each) were added in the presence or absence of SC as indicated. After 3 days, ALP activity was measured as described earlier. […] (B) M2 cells were treated as described in (A) and after 10 days matrix mineralization in cultures was quantified by a ^45Ca incorporation assay as described earlier. […] (C) M2 cells were pretreated with 20 μM SC for 4 hours, followed by the addition of RS in the presence or absence of SC as described above. After 8 days, total RNA was isolated and analyzed for osteocalcin (Osc) and […] expression by Northern blotting as previously described. Data from densitometric analysis of the Northern blot is shown in (D) as the average of duplicate samples, normalized to 18S rRNA. (E) M2 cells at confluence were pretreated for 2 hours with control vehicle (C), or PLA2 inhibitors ACA (25 μM) and AACOCF3 (AAC, 20 μM), in osteogenic medium. Next, a combination of 22R and 20S oxysterols (RS, 2.5 μM) was added in the presence or absence of the inhibitors as indicated. After 3 days, ALP activity was measured as previously described. […] (F) M2 cells were treated as described in (E). After 10 days, matrix mineralization in cultures was quantified using a ^45Ca incorporation assay as previously described. Results from a representative of three experiments are shown, reported as the mean of quadruplicate determinations±SD, normalized to protein concentration (p<0.01 for RS vs. RS+ACA and RS+AAC).
The purpose of the study was to identify other osteogenic and anti-adipogenic oxysterols based on the chemical structure of previously identified oxysterols. We tested the ability of such candidate oxysterol molecules to induce the formation of osteoblastic cells in cultures of marrow stromal cells, which are progenitors of osteoblastic cells that make bone. In order to assess osteogenic differentiation of cells, one or more markers of osteogenic differentiation were measured in untreated cells and cells treated with the test oxysterols. These markers included: alkaline phosphatase activity, osteocalcin mRNA expression and mineral formation in cultures of marrow stromal cells. Activation of either one or more than one marker by a single or combination oxysterols is indicative of their osteogenic property.

With `CC(C)CC[C@H](O)[C@@H](C)[C@H]1CC[C@H]2[C@@H]3CC=C4C[C@@H](O)CC[C@]4(C)[C@H]3CC[C@]12C` [22S-hydroxycholesterol], the inhibition of adipogenesis entry in data set [1] was “inhibited adipogenesis”. Also, the osteocalcin gene expression entry in data set [2] is listed as “unable to induce”. Besides, in data set [3], the mineralization result is listed as “unable to induce”. Besides, the “alkaline phosphatase activity (induction)” value in data set [4] is given as “induced alkaline phosphatase activity”.

For the molecule `CS(=O)(=O)Nc1ccc([N+](=O)[O-])cc1OC1CCCCC1` [NS-398, reference compound], in data set [5] (M2 cells), the highest non-toxic dose was 20 µM. Also, the “inhibition of the osteogenic effects of oxysterol combinations” value in data set [5] (SC-560 at 1-20 μM, NS-398 at 20 μM) is “negligible inhibitory effects”.

As to `O=S(=O)(c1ccccc1)N(CC(F)(F)F)c1ccc(C(O)(C(F)(F)F)C(F)(F)F)cc1` [TO, TO-901317, reference compound], the osteocalcin gene expression result in data set [2] is “did not induce”. Moreover, in data set [3], the mineralization entry was “did not induce”. For the same molecule, the “inhibition of alkaline phosphatase activity” value in data set [4] (M2 cells, TO at 1-10 μM) was “dose-dependent inhibition”. Also, the alkaline phosphatase activity in data set [4] (M2 cells) came to 3±0.5 activity units/mg protein.

As for `C[C@@H](CO)CCC[C@@H](C)[C@H]1CC[C@H]2[C@@H]3CC=C4C[C@@H](O)CC[C@]4(C)[C@H]3CC[C@]12C` [26-hydroxycholesterol], the “osteogenic property (markers of osteoblastic differentiation)” value in data set [5] is listed as “osteoinductive”. Also, the “Enzyme Activity (units/mg total cellular protein) ± SD” value in data set [4] is 655 ± 93 units/mg total cellular protein.

For `CCCCC/C=C\C/C=C\C/C=C\C/C=C\CCCC(=O)C(F)(F)F` [AACOCF3, reference compound], the “inhibition of oxysterol-induced mineralization” value in data set [3] was “inhibited”. Also, the “inhibition of oxysterol-induced alkaline phosphatase activity” value in data set [4] is recorded as “inhibited”.

As for BMP14: bone morphogenic protein 14, in data set [2], the “osteocalcin expression, synergy with osteogenic oxysterols” value is “synergistic induction”. Also, the “mineralization, synergy with oxysterols” value in data set [3] was “synergistically induced”. Besides, the “alkaline phosphatase activity, synergy with oxysterols” value in data set [4] is reported as “synergistically induced”.

Regarding `CC(C)CCC[C@@H](C)[C@H]1CC[C@H]2[C@@H]3CC=C4[C@@H](O)[C@@H](O)CC[C@]4(C)[C@H]3CC[C@]12C` [4beta-hydroxycholesterol], the “osteocalcin mRNA” value in data set [2] (M2-10B4 cells treated for eight days, FIG. 20) is recorded as “moderate increase”.

In the case of `C[C@H](CC[C@@H]1OC1(C)C)[C@H]1CC[C@H]2[C@@H]3CC=C4C[C@@H](O)CC[C@]4(C)[C@H]3CC[C@]12C` [24S,25-epoxycholesterol], the “osteogenic property (markers of osteoblastic differentiation)” value in data set [5] is on record as “osteoinductive”. In addition, the “Enzyme Activity (units/mg total cellular protein) ± SD” value in data set [4] is 1,588 ± 19 units/mg total cellular protein.

With `CCCCCc1ccc(/C=C/C(=O)Nc2ccccc2C(=O)O)cc1` [ACA, reference compound], the “inhibition of oxysterol-induced mineralization” value in data set [3] is given as “inhibited”. The “inhibition of oxysterol-induced alkaline phosphatase activity” value in data set [4] is “inhibited”.

For `CC(C)CCC[C@@H](C)[C@H]1CC[C@H]2[C@@H]3[C@H](O)C=C4C[C@@H](O)CC[C@]4(C)[C@H]3CC[C@]12C` [7alpha-hydroxycholesterol, reference compound], the “osteogenic property (markers of osteoblastic differentiation)” value in data set [5] is “did not appear to affect any measures of osteoblastic differentiation”.

For the molecule `COc1cccc(-c2cc(=O)c3ccccc3o2)c1N` [PD98059, reference compound], the “inhibition of oxysterol-induced osteocalcin gene expression” value in data set [2] (M2 cells pretreated with inhibitor, then 22R+20S oxysterols, 8 days) is given as “not”. For the same molecule, the “inhibition of oxysterol-induced mineralization” value in data set [3] is listed as “inhibited”.

With `CC(C)CCC[C@@H](C)[C@H]1CC[C@H]2[C@@H]3C(=O)C=C4C[C@@H](O)CC[C@]4(C)[C@H]3CC[C@]12C` [7-ketocholesterol, reference compound], the inhibition of adipogenesis entry in data set [1] is listed as “unable to inhibit adipogenesis”. The “alkaline phosphatase activity (induction)” value in data set [4] was “did not induce alkaline phosphatase activity”.

`CC(C)CC[C@@H](O)[C@@H](C)[C@H]1CC[C@H]2[C@@H]3CC=C4C[C@@H](O)CC[C@]4(C)[C@H]3CC[C@]12C` [22R-hydroxycholesterol]: in data set [1], the inhibition of adipogenesis entry is reported as “inhibited adipogenesis”. The osteocalcin gene expression result in data set [2] was “unable to induce”. For the same molecule, the mineralization result in data set [3] was “unable to induce”. Further, the “alkaline phosphatase activity (induction)” value in data set [4] is “induced alkaline phosphatase activity”. Besides, in data set [4] (M2 cells), the alkaline phosphatase activity came to 45±5 activity units/mg protein.

As to `CC(C)C(O)CC[C@@H](C)[C@H]1CC[C@H]2[C@@H]3CC=C4C[C@@H](O)CC[C@]4(C)[C@H]3CC[C@]12C` (stereo partly shown) [24-hydroxycholesterol], in data set [5], the “osteogenic property (markers of osteoblastic differentiation)” value is on record as “osteoinductive”. In addition, in data set [4], the “Enzyme Activity (units/mg total cellular protein) ± SD” value is 250 ± 20 units/mg total cellular protein.

B1: BMP7: bone morphogenic protein 7 (protein, UniProt P18075 293-431, looked up)
Bone morphogenetic protein 7: STGSKQRSQNRSKTPKNQEALRMANVAENSSSDQRQACKKHELYVSFRDLGWQDWIIAPEGYAAYYCEGECAFPLNSYMNATNHAIVQTLVHFINPETVPKPCCAPTQLNAISVLYFDDSSNVILKKYRNMVVRACGCH
Turning to B1, the “osteocalcin expression, synergy with osteogenic oxysterols” value in data set [2] was “synergistic induction”. Moreover, the “mineralization, synergy with oxysterols” value in data set [3] is on record as “synergistically induced”. Besides, the “alkaline phosphatase activity, synergy with oxysterols” value in data set [4] is reported as “synergistically induced”.
